From the NIST ThermoML archive (doi:10.1016/j.tca.2012.01.007)
± gives the expanded uncertainty stated by the source.

Test: wn = mass fraction of the nth substance listed
Settings: 101 kPa, Liquid, Vibrating tube method

OCCNCCO [diethanolamine] + O
Settings | mass density [kg/m3]
283.14 K, w1 = 1 | 1103.88 ± 0.31
283.15 K, w1 = 0.1007 | 1011.98 ± 0.47
283.15 K, w1 = 0.2002 | 1024.98 ± 0.45
283.15 K, w1 = 0.2997 | 1038.45 ± 0.44
283.15 K, w1 = 0.3999 | 1052.36 ± 0.43
283.15 K, w1 = 0.5003 | 1065.24 ± 0.41
283.15 K, w1 = 0.6024 | 1077.85 ± 0.4
283.15 K, w1 = 0.6999 | 1088.2 ± 0.38
283.15 K, w1 = 0.8004 | 1096.55 ± 0.36
283.15 K, w1 = 0.8534 | 1099.73 ± 0.35
283.15 K, w1 = 0.8995 | 1101.58 ± 0.34
283.16 K, w1 = 0.9316 | 1102.57 ± 0.33
283.16 K, w1 = 0.9591 | 1103.24 ± 0.32
293.14 K, w1 = 0.8995 | 1095.4 ± 0.33
293.15 K, w1 = 0.1007 | 1010.01 ± 0.46
293.15 K, w1 = 0.2002 | 1022.35 ± 0.45
293.15 K, w1 = 0.2997 | 1035.07 ± 0.43
293.15 K, w1 = 0.3999 | 1048.19 ± 0.42
293.15 K, w1 = 0.5003 | 1060.32 ± 0.41
293.15 K, w1 = 0.6024 | 1072.33 ± 0.39
293.15 K, w1 = 0.6999 | 1082.23 ± 0.37
293.15 K, w1 = 0.8004 | 1090.42 ± 0.35
293.15 K, w1 = 0.8534 | 1093.59 ± 0.34
293.15 K, w1 = 0.9316 | 1096.37 ± 0.32
293.15 K, w1 = 0.9591 | 1096.98 ± 0.32
293.15 K, w1 = 1 | 1097.51 ± 0.31
303.14 K, w1 = 0.6024 | 1066.59 ± 0.39
303.14 K, w1 = 0.6999 | 1076.15 ± 0.37
303.14 K, w1 = 0.8995 | 1089.06 ± 0.33
303.14 K, w1 = 1 | 1091.06 ± 0.3
303.15 K, w1 = 0.2002 | 1018.95 ± 0.45
303.15 K, w1 = 0.2997 | 1031.08 ± 0.43
303.15 K, w1 = 0.3999 | 1043.56 ± 0.42
303.15 K, w1 = 0.8004 | 1084.12 ± 0.35
303.15 K, w1 = 0.8534 | 1087.26 ± 0.34
303.15 K, w1 = 0.9316 | 1090.01 ± 0.32
303.15 K, w1 = 0.9591 | 1090.59 ± 0.31
303.16 K, w1 = 0.1007 | 1007.1 ± 0.46
303.16 K, w1 = 0.5003 | 1055.09 ± 0.4
313.14 K, w1 = 0.6024 | 1060.6 ± 0.38
313.14 K, w1 = 0.8004 | 1077.72 ± 0.34
313.14 K, w1 = 1 | 1084.49 ± 0.3
313.15 K, w1 = 0.1007 | 1003.4 ± 0.46
313.15 K, w1 = 0.2002 | 1014.87 ± 0.44
313.15 K, w1 = 0.3999 | 1038.5 ± 0.41
313.15 K, w1 = 0.6999 | 1069.91 ± 0.36
313.15 K, w1 = 0.8534 | 1080.78 ± 0.33
313.15 K, w1 = 0.8995 | 1082.55 ± 0.32
313.15 K, w1 = 0.9316 | 1083.49 ± 0.31
313.15 K, w1 = 0.9591 | 1084.06 ± 0.31
313.16 K, w1 = 0.2997 | 1026.54 ± 0.43
313.16 K, w1 = 0.5003 | 1049.55 ± 0.4
323.14 K, w1 = 0.5003 | 1043.69 ± 0.39
323.14 K, w1 = 0.6024 | 1054.36 ± 0.37
323.14 K, w1 = 1 | 1077.78 ± 0.29
323.15 K, w1 = 0.1007 | 999.014 ± 0.45
323.15 K, w1 = 0.2002 | 1010.18 ± 0.43
323.15 K, w1 = 0.6999 | 1063.49 ± 0.35
323.15 K, w1 = 0.8004 | 1071.18 ± 0.34
323.15 K, w1 = 0.8534 | 1074.21 ± 0.33
323.15 K, w1 = 0.8995 | 1075.95 ± 0.32
323.15 K, w1 = 0.9316 | 1076.86 ± 0.31
323.15 K, w1 = 0.9591 | 1077.4 ± 0.3
323.16 K, w1 = 0.2997 | 1021.47 ± 0.42
323.16 K, w1 = 0.3999 | 1033.03 ± 0.41
333.14 K, w1 = 0.8995 | 1069.24 ± 0.31
333.14 K, w1 = 1 | 1071 ± 0.29
333.15 K, w1 = 0.1007 | 994.007 ± 0.45
333.15 K, w1 = 0.2002 | 1004.93 ± 0.43
333.15 K, w1 = 0.2997 | 1015.93 ± 0.41
333.15 K, w1 = 0.3999 | 1027.17 ± 0.4
333.15 K, w1 = 0.5003 | 1037.44 ± 0.38
333.15 K, w1 = 0.6024 | 1047.86 ± 0.37
333.15 K, w1 = 0.6999 | 1056.8 ± 0.35
333.15 K, w1 = 0.8534 | 1067.5 ± 0.32
333.15 K, w1 = 0.9316 | 1070.14 ± 0.3
333.15 K, w1 = 0.9591 | 1070.66 ± 0.3
333.16 K, w1 = 0.8004 | 1064.48 ± 0.33
343.14 K, w1 = 0.2997 | 1009.93 ± 0.41
343.14 K, w1 = 0.6024 | 1041.1 ± 0.36
343.14 K, w1 = 0.6999 | 1049.92 ± 0.34
343.14 K, w1 = 0.8995 | 1062.39 ± 0.3
343.14 K, w1 = 1 | 1064.14 ± 0.28
343.15 K, w1 = 0.1007 | 988.445 ± 0.45
343.15 K, w1 = 0.2002 | 999.169 ± 0.42
343.15 K, w1 = 0.3999 | 1020.9 ± 0.39
343.15 K, w1 = 0.5003 | 1030.89 ± 0.38
343.15 K, w1 = 0.8534 | 1060.63 ± 0.31
343.15 K, w1 = 0.9316 | 1063.3 ± 0.3
343.15 K, w1 = 0.9591 | 1063.82 ± 0.29
343.16 K, w1 = 0.8004 | 1057.6 ± 0.32
353.14 K, w1 = 0.2997 | 1003.5 ± 0.4
353.14 K, w1 = 0.5003 | 1024.01 ± 0.37
353.14 K, w1 = 0.6999 | 1042.78 ± 0.34
353.14 K, w1 = 0.8995 | 1055.38 ± 0.3
353.14 K, w1 = 0.9316 | 1056.33 ± 0.29
353.14 K, w1 = 0.9591 | 1056.87 ± 0.29
353.15 K, w1 = 0.1007 | 982.774 ± 0.44
353.15 K, w1 = 0.2002 | 992.938 ± 0.42
353.15 K, w1 = 0.3999 | 1014.25 ± 0.39
353.15 K, w1 = 0.6024 | 1034.05 ± 0.35
353.15 K, w1 = 0.8004 | 1050.51 ± 0.32
353.15 K, w1 = 0.8534 | 1053.58 ± 0.31
353.15 K, w1 = 1 | 1056.83 ± 0.28
